Assay results reported in PubChem BioAssay AID2060501 (Molecular Pharmacology Branch, DTP, NCI, 2025).
Several values for one entry are separate records, joined by “and”; a condition that tells them apart may be missing. Equal values may be shown once.

Tested on: 282377-053-R-J1-PDC complex spheroids, viability
Assay: Anticancer human tumor 282377-053-R-J1-PDC patient-derived colon adenocarcinoma cell line growth inhibition [GQUAD]
Settings: for viability, T/C: stronger effect = lower value
From the text: DNA G-quadruplex Stabilizer Agents in Combinations in Complex Spheroids
A high-throughput screen of multi-cell type tumor spheroids was designed to identify active combinations of DNA G-quadruplex stabilizer agents and targeted small molecules. Complex spheroids include a stromal component modeled by human endothelial cells (HUVEC) and fibroblasts modeled by human mesenchymal stem cells (MSCs). The concentration ranges selected for each drug and investigational agent were based upon clinically achievable concentrations if the clinical Cmax of the agent was known.
Compounds. The drugs and investigational agents: pidnarulex (CX-5461; NSC782164), APTO-253 (NSC789042), BRACO-19 (NSC847499), peposertib (NSC802822), ceralasertib (NSC780249), elimusertib (NSC800525), camonsertib (NSC841442), AZD-1390 (NSC803789), olaparib (NSC753686), talazoparib (NSC767125), ART-558 (NSC835418), sotorasib (NSC818433), MRTX-1133 (NSC836407), SN-38 (NSC673596), topotecan (NSC609699), etoposide (NSC141540), doxorubicin (NSC123127), gemcitabine (NSC613327), 5-fluorouracil (NSC19893), paclitaxel (NSC125973), vemurafenib (NSC761431), panobinostat (NSC761190), R-306465 (JNJ-16241199; NSC773264), adavosertib (NSC754352), TP-3654 (NSC805149), carboplatin (NSC241240), KSQ-4279 (NSC840948), and staurosporine (NSC755774) were obtained from the National Cancer Institute (NCI) Developmental Therapeutics Program Chemical Repository (34). The FDA-approved anticancer drug set is available from the NCI Developmental Therapeutics Program. […] The stock solutions were prepared in dimethyl sulfoxide (DMSO, Sigma-Aldrich, St. Louis, MO, cat. D2650) at 800-fold the tested concentration and stored at -70 degrees C prior to their use. All drugs and investigational agents were tested over a range starting from a high concentration at or near the clinical Cmax and decreasing in half-log increments. If the clinical Cmax for an agent had not been determined, the highest concentration tested was 10 microM.
2.3 Cell Culture. All cells were maintained in an incubator at 37 degrees C and 5% CO2 with 95% humidity. The PDC lines were cultured according to standard operating procedures established by the NCI PDMR. All PDCs were thawed and cultured in Matrigel-coated flasks prepared with a working solution of 1X Ham's F-12 nutrient mix, without supplementation (Invitrogen, cat. 11765054), 100 U/mL penicillin-streptomycin (Invitrogen, cat. 15140122), and 2.5% Matrigel (Corning Inc., cat. 354248) for the first three passages. The 857933-349-R-J2-PDC line was cultured in 6C/Colon 1B media, which includes advanced DMEM/F-12 (Thermo Fisher Scientific, cat. 12634028), 10 mM HEPES (Thermo Fisher Scientific, cat. 15630080), 1X GlutaMAX supplement (Thermo Fisher Scientific, cat. 35050061), 0.1 mg/mL primocin (InvivoGen, cat. ant-pm-2), 10% defined fetal bovine serum, heat inactivated (HyClone Laboratories Inc., cat. SH30070.03HI), 50% L-WRN conditioned media (ATCC, cat. CRL-3276), 1.25 mM N-Acetyl-L-cysteine (Sigma-Aldrich, cat. A9165), 10 mM nicotinamide (Sigma-Aldrich, cat. N0636), 1X B-27 supplement (Thermo Fisher Scientific, cat. 17504044), 1X N-2 supplement (Thermo Fisher Scientific, cat. 17502048), 10 microM Y-27632 dihydrochloride (Tocris Bioscience, cat. 1254), and 50 ng/mL human EGF recombinant protein (Thermo Fisher Scientific, cat. PHG0311). The 485176-168-R4-J1-PDC line was cultured in Panc media, which includes all 6C/Colon 1B media components plus 100 ng/mL human FGF-10 (Thermo Fisher Scientific, cat. 100-26), 500 nM SB-431542 (Selleckchem, cat. S1067), and gastrin (Tocris, cat. 3006).
[…]

[1] = curve of first compound, second compound 0.0316 µM
[2] = curve of first compound, second compound 0.1 µM
[3] = curve of first compound, second compound 0.316 µM
[4] = curve of first compound, second compound 1 µM
[5] = curve of first compound, second compound 3.16 µM
[6] = curve of first compound, second compound 10 µM
[7] = second compound 0.0316 µM, first compound 0.0316 µM
[8] = second compound 0.0316 µM, first compound 0.1 µM
[9] = second compound 0.0316 µM, first compound 0.316 µM
[10] = second compound 0.0316 µM, first compound 1 µM
[11] = second compound 0.0316 µM, first compound 3.16 µM
[12] = second compound 0.0316 µM, first compound 10 µM
[13] = second compound 0.1 µM, first compound 0.0316 µM
[14] = second compound 0.1 µM, first compound 0.1 µM
[15] = second compound 0.1 µM, first compound 0.316 µM
[16] = second compound 0.1 µM, first compound 1 µM
[17] = second compound 0.1 µM, first compound 3.16 µM
[18] = second compound 0.1 µM, first compound 10 µM
[19] = second compound 0.316 µM, first compound 0.0316 µM
[20] = second compound 0.316 µM, first compound 0.1 µM
[21] = second compound 0.316 µM, first compound 0.316 µM
[22] = second compound 0.316 µM, first compound 1 µM
[23] = second compound 0.316 µM, first compound 3.16 µM
[24] = second compound 0.316 µM, first compound 10 µM
[25] = second compound 1 µM, first compound 0.0316 µM
[26] = second compound 1 µM, first compound 0.1 µM
[27] = second compound 1 µM, first compound 0.316 µM
[28] = second compound 1 µM, first compound 1 µM
[29] = second compound 1 µM, first compound 3.16 µM
[30] = second compound 1 µM, first compound 10 µM
[31] = second compound 3.16 µM, first compound 0.0316 µM
[32] = second compound 3.16 µM, first compound 0.1 µM
[33] = second compound 3.16 µM, first compound 0.316 µM
[34] = second compound 3.16 µM, first compound 1 µM
[35] = second compound 3.16 µM, first compound 3.16 µM
[36] = second compound 3.16 µM, first compound 10 µM
[37] = second compound 10 µM, first compound 0.0316 µM
[38] = second compound 10 µM, first compound 0.1 µM
[39] = second compound 10 µM, first compound 0.316 µM
[40] = second compound 10 µM, first compound 1 µM
[41] = second compound 10 µM, first compound 3.16 µM
[42] = second compound 10 µM, first compound 10 µM
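Note: spheroids exposed to compounds for 7 days before readout.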
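Throughout, for viability, T/C: percent of vehicle DMSO control viability with 100% = untreated-like growth.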

CC1COCCN1c1cc(-c2ccnn2C)c2ccnc(-c3ccn[nH]3)c2n1 (stereo unspecified)
viability, T/C (compound 0.0316 µM): 76.8% and 96.3% and 95.7% | viability, T/C (compound 0.1 µM): 80.2% and 78.9% and 53% | viability, T/C (compound 0.316 µM): 61.4% and 49% and 55.4% | viability, T/C (compound 1 µM): 43.9% and 49.3% and 38.2% | viability, T/C (compound 3.16 µM): 29.3% and 33% and 26.9% | viability, T/C (compound 10 µM): 20.9% and 28.2% and 23.2% | IC50 (curve of compound): 696 nM and 555 nM and 247 nM

CC(C)(O)C1CCC(Nc2ccc3ncc(-c4cccc(C(F)(F)F)c4)n3n2)CC1 (stereo unspecified) + Cc1[nH]c2ccc(F)cc2c1-c1nc2c3cccnc3c3ncccc3c2[nH]1
IC50 [1]: > 10000 nM | IC50 [2]: > 10000 nM | IC50 [3]: > 10000 nM | IC50 [4]: > 10000 nM | IC50 [5]: > 10000 nM | IC50 [6]: 2900 nM | viability, T/C [7]: 107% | viability, T/C [8]: 95.9% | viability, T/C [9]: 114% | viability, T/C [10]: 103% | viability, T/C [11]: 86.1% | viability, T/C [12]: 76.9% | viability, T/C [13]: 122% | viability, T/C [14]: 103% | viability, T/C [15]: 91.5% | viability, T/C [16]: 95.3% | viability, T/C [17]: 103% | viability, T/C [18]: 73.3% | viability, T/C [19]: 107% | viability, T/C [20]: 96.7% | viability, T/C [21]: 87.7% | viability, T/C [22]: 95.1% | viability, T/C [23]: 103% | viability, T/C [24]: 91.9% | viability, T/C [25]: 115% | viability, T/C [26]: 95.8% | viability, T/C [27]: 88.8% | viability, T/C [28]: 118% | viability, T/C [29]: 81.4% | viability, T/C [30]: 92.3% | viability, T/C [31]: 88.8% | viability, T/C [32]: 71.1% | viability, T/C [33]: 70.7% | viability, T/C [34]: 79.2% | viability, T/C [35]: 100% | viability, T/C [36]: 63.1% | viability, T/C [37]: 61.9% | viability, T/C [38]: 51.5% | viability, T/C [39]: 75.6% | viability, T/C [40]: 48.4% | viability, T/C [41]: 46.9% | viability, T/C [42]: 42.7%

CC(=O)O[C@H]1C(=O)[C@@]2(C)[C@H]([C@H](OC(=O)c3ccccc3)[C@]3(O)C[C@H](OC(=O)[C@H](O)[C@@H](NC(=O)c4ccccc4)c4ccccc4)C(C)=C1C3(C)C)[C@]1(OC(C)=O)CO[C@@H]1C[C@@H]2O + CN(C)c1ccc(Nc2c3ccc(NC(=O)CCN4CCCC4)cc3nc3cc(NC(=O)CCN4CCCC4)ccc23)cc1
IC50 [1]: 42 nM | IC50 [2]: 44.7 nM | IC50 [3]: 48.8 nM | IC50 [4]: 34.7 nM | IC50 [5]: 39.1 nM | IC50 [6]: < 31.6 nM | viability, T/C [7]: 59.7% | viability, T/C [8]: 14.9% | viability, T/C [9]: 18.9% | viability, T/C [10]: 18.1% | viability, T/C [11]: 22% | viability, T/C [12]: 25.2% | viability, T/C [13]: 63.1% | viability, T/C [14]: 15.6% | viability, T/C [15]: 17.4% | viability, T/C [16]: 17.6% | viability, T/C [17]: 21.3% | viability, T/C [18]: 25.8% | viability, T/C [19]: 68% | viability, T/C [20]: 17.1% | viability, T/C [21]: 18.5% | viability, T/C [22]: 18.1% | viability, T/C [23]: 19.1% | viability, T/C [24]: 28.9% | viability, T/C [25]: 52.5% | viability, T/C [26]: 15.7% | viability, T/C [27]: 18.1% | viability, T/C [28]: 17.4% | viability, T/C [29]: 26.8% | viability, T/C [30]: 25% | viability, T/C [31]: 56.7% | viability, T/C [32]: 18.4% | viability, T/C [33]: 16.8% | viability, T/C [34]: 17.2% | viability, T/C [35]: 19.2% | viability, T/C [36]: 24.7% | viability, T/C [37]: 47.2% | viability, T/C [38]: 14.8% | viability, T/C [39]: 14.5% | viability, T/C [40]: 18.8% | viability, T/C [41]: 22.8% | viability, T/C [42]: 28.4%
